This is an account of results in paper PMC9102953, “New Derivatives of 5-Substituted Uracils: Potential Agents with a Wide Spectrum of Biological Activity” (Molecules, 2022).

One series relates to a variety of RNA viruses. The format is cell-based.
For a further series, the system named is HCoV-OC43. Description: Antiviral cytopathicity assay, HCoV-OC43 in HEL 299 cells. Format: cell-based. In general terms: Damage to the host cells serves as the signal in cytopathic effect assays.
The subject of series [1] is yellow fever virus (YFV) strain 17 D. Description: microbe, parasite or virus in culture. The format is cell-based. The note with it: Yellow fever virus, Huh-7, read-out: EC50 (μM) YFV 17D, Huh7.
Series [2] deals with HEL299, Huh 7 and MDCK cells.
Series [3] has as its system respiratory syncytial virus (RSV) strain A Long. Description: microbe, parasite or virus in culture. Format: cell-based. As to conditions: human respiratory syncytial virus, HEL 299, read-out: EC50 (μM) RSV A Long, HEL 299.
Series [4] in a line: in vitro. As to conditions: dog.
Series [5] in a line: in vitro. As to conditions: human.
Series [6] in a line: in vitro. The note with it: human. This is another data set of the same source.
The subject of series [7] is varicella-zoster virus (VZV) strain TK−. Description: microbe, parasite or virus in culture. The format is cell-based. The note with it: Human alphaherpesvirus 3, HEL, read-out: EC50, formation of viral plaques, TK-varicella-zoster virus strain.
In series [8] the test system is human cytomegalovirus (HCMV) strain AD-169. Briefly: microbe, parasite or virus in culture. The format is cell-based. As to conditions: Human betaherpesvirus 5, AD169, HEL, read-out: EC50, formation of viral plaques, cytomegalovirus strain AD169.
Another series deals with HEL cells. Briefly: Change of cell morphology in HEL cells. Format: cell-based, human.
Series [9] has as its system human cytomegalovirus (HCMV) strain Davis. Description: microbe, parasite or virus in culture. As to conditions: Human betaherpesvirus 5, HEL, read-out: EC50, formation of viral plaques, cytomegalovirus strain Davis. The format is cell-based.
[10] abbreviates: Betacoronavirus 1, OC43, HEL 299, read-out: EC50 (μM) HCoV-OC43, HEL 299.
Where [11] appears, read: Betacoronavirus 1, OC43, HEL 299 cells, reduction of virus-induced cytopathicity by 50%, read-out: EC50 (μM) HCoV-OC43, HEL 299.

Like-named read-outs stand apart in the source and are kept apart here.

With `CCCCCCc1ccc(Nc2cn(C3C=CC(O)C3)c(=O)[nH]c2=O)cc1` (racemic) [(±)-3d, (±)-1-(4′-Hydroxycyclopent-2′-en-1′-yl)-5-((4′-hexylphenyl)amino)uracil], the “antiviral activity in the screening (in words)” value (shortened to “antiviral activity”) in the series with a variety of RNA viruses is “did not show any activity”. Moreover, the EC50 (in the series on HCoV-OC43 (setting [10]); in [1]; in [3]) was above 100 µM throughout. In series [2], the “cytotoxicity in the tested cell lines (in words)” value (from here on “cytotoxicity”) is “marked cytotoxicity”. Further, the CC50 in “in vitro [4]” came out at 30 µM.

Turning to `CC(C)(C)c1ccc(Nc2cn(C3C=CC(O)C3)c(=O)[nH]c2=O)cc1` (racemic) [(±)-3e, (±)-1-(4′-Hydroxycyclopent-2′-en-1′-yl)-5-((4″-tert-butyl)phenylamino)uracil], the “antiviral activity” value with a variety of RNA viruses was “did not show any activity”. The EC50 (with HCoV-OC43 (setting [10]); in [1]; in series [3]) was above 100 µM in each case. The “cytotoxicity” value in [2] is listed as “marked cytotoxicity”. Besides, the CC50 in “in vitro [4]” was 63 µM; in the series “in vitro [5]”, above 100 µM; in “in vitro [6]”, above 100 µM.

On to `CC(C)(C)c1ccc(Nc2cn(C3C=CC(O)C3)c(=O)n(C3C=CC(O)C3)c2=O)cc1` (racemic) [(±)-4e, (±)-1-(1-(4′-hydroxycyclopent-2′-ene-1′-yl))-3-(4‴-hydroxycyclopent-2‴-en-1‴-yl)-5-((4″-tert-butyl)phenylamino)uracil], for which the EC50 (in general, the concentration that produces a half-maximal response) is 48.9 µM in series [7]; above 100 µM in the series on HCoV-OC43 (setting [11]); above 100 µM in series [1]; 76.5 µM in [8]; above 100 µM in [3]; 40.9 µM in series [9]. Moreover, the “antiviral activity” value with a variety of RNA viruses was “did not show any activity”. Besides, the “cytotoxicity” value in [2] is on record as “marked cytotoxicity”. For the same molecule, the “minimum concentration that leads to the detection of changes in cell morphology” value with HEL cells is “greater than 100 μM”. The molecule also displayed a CC50 in the series “in vitro [4]” of 19.5 µM.

For `Cc1cc(C)cc(Oc2cn(C3C=CC(O)C3)c(=O)[nH]c2=O)c1` (racemic) [(±)-10a, (±)-1-(4′-Hydroxycyclopent-2′-en-1′-yl)-5-(3″,5″-dimethylphenoxy)uracil], in the series on a variety of RNA viruses, the “antiviral activity” value was “did not show any activity”. In addition, the EC50 (in the series on HCoV-OC43 (setting [10]); in [1]; in series [3]) was above 100 µM throughout. In addition, the “cytotoxicity” value in series [2] was “marked cytotoxicity”. For the same molecule, the CC50 in “in vitro [4]” is 33.8 µM; in the series “in vitro [5]”, above 100 µM; in the series “in vitro [6]”, above 100 µM.

As for `O=c1c(Oc2ccc(Cl)cc2)cn(C2C=CC(O)C2)c(=O)n1C1C=CC(O)C1` (racemic) [(±)-11c, (±)-1-(4′-hydroxycyclopent-2′-en-1′-yl)-3-(4‴-hydroxycyclopent-2‴-en-1‴-yl)-5-(4″-chlorophenoxy)uracil], the “antiviral activity” value with a variety of RNA viruses is recorded as “did not show any activity”. Also, the EC50 (in the series on HCoV-OC43 (setting [10]); in series [1]; in series [3]) was above 100 µM in each case. In [2], the “cytotoxicity” value is on record as “marked cytotoxicity”. Besides, the CC50 in the series “in vitro [4]” is 47.4 µM; in “in vitro [5]”, above 100 µM; in the series “in vitro [6]” it was above 100 µM.

As for `O=c1[nH]cc(Oc2ccc(Cl)cc2)c(=O)[nH]1` [Compound 5c, 5-(4-Chlorophenoxy)uracil], the melting point – broadly, the temperature, or range, at which the solid turns liquid – was 331 to 333 °C. The EC50 in the series on HCoV-OC43 (setting [11]) is above 100 µM. Moreover, the EC50 in [1] was above 100 µM. In [3], the EC50 was above 100 µM. The molecule also displayed a CC50 in the series “in vitro [4]” above 100 µM. This molecule also registered a CC50 in “in vitro [5]” above 100 µM. Further, the CC50 in “in vitro [6]” was above 100 µM.

With `CC(C)(C)c1ccc(Oc2c[nH]c(=O)[nH]c2=O)cc1` [Compound 5d, 5-(4-tert-Butylphenoxy)uracil], the melting point is 273 to 275 °C. For the same molecule, the EC50 with HCoV-OC43 (setting [11]) was above 100 µM. For the same molecule, the EC50 in [1] was above 100 µM. The 50% effective concentration (EC50) in [3] was above 100 µM. In “in vitro [4]”, this molecule returned a CC50 above 100 µM. The CC50 in “in vitro [5]” is above 100 µM. The molecule further returned a CC50 in “in vitro [6]” above 100 µM.
